# Patent US20250170105A1, “ASSOCIATION WITH ANTIBIOTIC ACTIVITY, PHARMACEUTICAL COMPOSITIONS CONTAINING IT AND THEIR USE IN THE TREATMENT OF INFECTIONS” (VETAGRO INTERNATIONAL S.R.L., priority 2022, published 2025)
# Where two headings read alike, the source gives them in different places.
# Experiments:
# Type in all cases: cell-based
# Escherichia Coli K88 95 [1] = experiment: Individual tests, microdilution MIC; conditions: for MIC: Escherichia coli
# Protocol: (§1) Strains were stored at −80° C. in appropriate media with glycerol, thawed and cultured according to conventional practices.
# (§2) The ABs shown in Tables 2 and 3 below, all obtained from Aplha Aesar, were tested. The OAs used are shown in Tables 2 and 3 below, all obtained from Merck. The stock solutions were prepared appropriately and in appropriate way and media for the different strains and could contain 3.5% ethanol to increase solubility.
# (§3) The tests were conducted using the microdilution method in a 96-well plate to be microtitered with the medium and culture conditions appropriate for the strains. Bacterial strains (10^5-10^6 CFU/ml) were incubated with the compounds to be tested, while control strains, when necessary, were grown in media containing 3.5% ethanol to exclude an inhibitory effect of any ethanol present in the stock solutions. After incubation, MIC was defined as the lowest concentration resulting in zero absorbance at 630 nm, recorded with Varioskan® LUX Multimode Microplat Reader (Thermo Fisher Scientific). For each test, the percentage of inhibition (%) was calculated with respect to the relative control.
# (§4) ABs were tested in the range 64-0.13 ppm, OAs in the range […] and NICs in the range 7.5-0.06 nM.
# Escherichia coli K88 97 [2] = experiment: Individual tests, microdilution MIC; conditions: for MIC: Escherichia coli
# Protocol: as §1, §2, §3, §4
# Streptococcus suis 701 [3] = experiment: Individual tests, microdilution MIC
# Protocol: as §1, §2, §3, §4
# Streptococcus suis 702 [4] = experiment: Individual tests, microdilution MIC
# Protocol: as §1, §2, §3, §4
# Escherichia Coli K88 95 [5] = experiment: Combination test, checkerboard, % inhibition; conditions: E. coli 95
# Protocol: as §1, §3
# (§5) After phase 1, the strains were tested with associations at sub-effective doses of AB and OA or NIC in a 2×2 checkerboard model. Specifically, two sub-effective doses of AB were associated with two sub-effective doses of OA or NIC (half and one-quarter of MICs) as shown in FIG. 1.
# (§6) The % indicate the percentage of inhibition (compounds alone and combinations).
# (§7) Tables 4 to 7 show the % of inhibition of the components of the associations alone, at the effective concentrations shown in Tables 2 and 3, and at the sub-effective concentrations (half and one-quarter of MICs), and the % of inhibition of the associations.
# Escherichia coli K88 97 [6] = experiment: Combination test, checkerboard, % inhibition; conditions: E. coli 97
# Protocol: as §1, §3, §5, §6, §7
# Streptococcus suis 701 [7] = experiment: Combination test, checkerboard, % inhibition; conditions: S. suis 701
# Protocol: as §1, §3, §5, §6, §7
# Streptococcus suis 702 [8] = experiment: Combination test, checkerboard, % inhibition; conditions: S. suis 702
# Protocol: as §1, §3, §5, §6, §7
# [9] = COLIK8895, E. coli 95, read-out: MIC values
# [10] = K8897, E. coli 97, read-out: MIC values
# [11] = Streptococcus suis, S. suis 701, read-out: MIC values
# [12] = Streptococcus suis, S. suis 702, read-out: MIC values
# [13] = COLIK8895, read-out: MIC values
compound,measurement,setting,value
CC1(C)S[C@@H]2[C@H](NC(=O)[C@H](N)c3ccc(O)cc3)C(=O)N2[C@H]1C(=O)O [Amoxicillin],MIC,Escherichia Coli K88 95 [1]; [9],> 64 µg/mL
same,MIC,Escherichia coli K88 97 [2]; [10],> 64 µg/mL
same,MIC,Streptococcus suis 701 [3]; [11],0.5 µg/mL
same,MIC,Streptococcus suis 702 [4]; [12],0.5 µg/mL
CC1(C)S[C@@H]2[C@H](NC(=O)[C@H](N)c3ccccc3)C(=O)N2[C@H]1C(=O)O [Ampicillin],MIC,Streptococcus suis 701 [3]; [11],0.25 µg/mL
same,MIC,Streptococcus suis 702 [4]; [12],0.25 µg/mL
"O=C(O)c1ccccc1 [Benzoic Acid, benzoic acid]",MIC,Escherichia Coli K88 95 [1]; [13],50 mM
same,MIC,"Escherichia coli K88 97 [2]; K8897, read-out: MIC values",50 mM
same,MIC,"Streptococcus suis 701 [3]; Streptococcus suis, 701, read-out: MIC values",50 mM
same,MIC,"Streptococcus suis 702 [4]; Streptococcus suis, 702, read-out: MIC values",25 mM
same,% inhibition,Escherichia Coli K88 95 [5]; BEN 12.5 mM alone,63%
same,% inhibition,Escherichia Coli K88 95 [5]; BEN 25 mM alone,90%
same,% inhibition,Escherichia coli K88 97 [6]; BEN 12.5 mM alone,79%
same,% inhibition,Escherichia coli K88 97 [6]; BEN 25 mM alone,97%
same,% inhibition,Streptococcus suis 701 [7]; BEN 12.5 mM alone,22%
same,% inhibition,Streptococcus suis 701 [7]; BEN 25 mM alone,51%
same,% inhibition,Streptococcus suis 702 [8]; BEN 6.25 mM alone,21%
same,% inhibition,Streptococcus suis 702 [8]; BEN 12.5 mM alone,39%
CO/N=C(\C(=O)N[C@@H]1C(=O)N2C(C(=O)O)=C(CSC(=O)c3ccco3)CS[C@H]12)c1csc(N)n1 [Ceftiofur],MIC,Escherichia Coli K88 95 [1]; [9],1 µg/mL
same,MIC,Escherichia coli K88 97 [2]; [10],2 µg/mL
same,MIC,Streptococcus suis 701 [3]; [11],0.5 µg/mL
same,MIC,Streptococcus suis 702 [4]; [12],0.5 µg/mL
"O=C(O)CC(O)(CC(=O)O)C(=O)O [Citric acid, citric acid]",MIC,Escherichia Coli K88 95 [1]; [9],> 100 mM
same,MIC,Escherichia coli K88 97 [2]; [10],> 100 mM
same,MIC,Streptococcus suis 701 [3]; [11],50 mM
same,MIC,Streptococcus suis 702 [4]; [12],25 mM
same,% inhibition,Streptococcus suis 701 [7]; CIT 12.5 mM alone,18%
same,% inhibition,Streptococcus suis 701 [7]; CIT 25 mM alone,36%
same,% inhibition,Streptococcus suis 702 [8]; CIT 6.25 mM alone,12%
same,% inhibition,Streptococcus suis 702 [8]; CIT 12.5 mM alone,43%
C[C@H]1c2cccc(O)c2C(=O)C2=C(O)[C@]3(O)C(=O)C(C(N)=O)=C(O)[C@@H](N(C)C)[C@@H]3[C@@H](O)[C@@H]21 [Doxycycline],MIC,Streptococcus suis 701 [3]; [11],16 µg/mL
same,MIC,Streptococcus suis 702 [4]; [12],0.5 µg/mL
CCN1CCN(c2cc3c(cc2F)c(=O)c(C(=O)O)cn3C2CC2)CC1 [Enrofloxacin],MIC,Escherichia Coli K88 95 [1]; [9],2 µg/mL
same,MIC,Escherichia coli K88 97 [2]; [10],2 µg/mL
same,MIC,Streptococcus suis 701 [3]; [11],0.5 µg/mL
same,MIC,Streptococcus suis 702 [4]; [12],0.5 µg/mL
"C=CCc1ccc(O)c(OC)c1 [Eugenolo, eugenol]",MIC,Escherichia Coli K88 95 [1]; [9],3.75 mM
same,MIC,Escherichia coli K88 97 [2]; [10],3.75 mM
same,MIC,Streptococcus suis 701 [3]; [11],3.75 mM
same,MIC,Streptococcus suis 702 [4]; [12],3.75 mM
same,% inhibition,Escherichia Coli K88 95 [5]; EUG 0.94 mM alone,31%
same,% inhibition,Escherichia Coli K88 95 [5]; EUG 1.87 mM alone,44%
same,% inhibition,Escherichia coli K88 97 [6]; EUG 0.94 mM alone,26%
same,% inhibition,Escherichia coli K88 97 [6]; EUG 1.87 mM alone,34%
same,% inhibition,Streptococcus suis 701 [7]; EUG 0.94 mM alone,6%
same,% inhibition,Streptococcus suis 701 [7]; EUG 1.87 mM alone,27%
same,% inhibition,Streptococcus suis 702 [8]; EUG 0.94 mM alone,9%
same,% inhibition,Streptococcus suis 702 [8]; EUG 1.87 mM alone,12%
CS(=O)(=O)c1ccc([C@@H](O)[C@@H](CF)NC(=O)C(Cl)Cl)cc1 [Florfenicol],MIC,Escherichia Coli K88 95 [1]; [9],16 µg/mL
same,MIC,Escherichia coli K88 97 [2]; [10],> 64 µg/mL
same,MIC,Streptococcus suis 701 [3]; [11],2 µg/mL
same,MIC,Streptococcus suis 702 [4]; [12],2 µg/mL
"CCCCCC(=O)O [Hexanoic acid, hexanoic acid]",MIC,Escherichia Coli K88 95 [1]; [13],50 mM
same,MIC,"Escherichia coli K88 97 [2]; K8897, read-out: MIC values",50 mM
same,% inhibition,Escherichia Coli K88 95 [5]; HEX 12.5 mM alone,76%
same,% inhibition,Escherichia Coli K88 95 [5]; HEX 25 mM alone,83%
same,% inhibition,Escherichia coli K88 97 [6]; HEX 12.5 mM alone,65%
same,% inhibition,Escherichia coli K88 97 [6]; HEX 25 mM alone,83%
"C/C=C/C=C/C(=O)O [Sorbic Acid, sorbic acid]",MIC,Escherichia Coli K88 95 [1]; [9],50 mM
same,MIC,Escherichia coli K88 97 [2]; [10],50 mM
same,MIC,Streptococcus suis 701 [3]; [11],100 mM
same,MIC,Streptococcus suis 702 [4]; [12],50 mM
same,% inhibition,Escherichia Coli K88 95 [5]; SOR 12.5 mM alone,69%
same,% inhibition,Escherichia Coli K88 95 [5]; SOR 25 mM alone,85%
same,% inhibition,Escherichia coli K88 97 [6]; SOR 12.5 mM alone,79%
same,% inhibition,Escherichia coli K88 97 [6]; SOR 25 mM alone,93%
same,% inhibition,Streptococcus suis 701 [7]; SOR 25 mM alone,30%
same,% inhibition,Streptococcus suis 701 [7]; SOR 50 mM alone,56%
same,% inhibition,Streptococcus suis 702 [8]; SOR 12.5 mM alone,26%
same,% inhibition,Streptococcus suis 702 [8]; SOR 25 mM alone,38%
Cc1cc(NS(=O)(=O)c2ccc(N)cc2)no1 [Sulfamethoxazole],MIC,Escherichia Coli K88 95 [1]; [9],> 608 µg/mL
same,MIC,Escherichia coli K88 97 [2]; [10],> 608 µg/mL
"CN(C)[C@@H]1C(O)=C(C(N)=O)C(=O)[C@@]2(O)C(O)=C3C(=O)c4c(O)cccc4[C@@](C)(O)[C@H]3C[C@@H]12 [Tetracycline, tetracycline, reference compound]",MIC,Escherichia Coli K88 95 [1]; [9],> 64 µg/mL
same,MIC,Escherichia coli K88 97 [2]; [10],> 64 µg/mL
same,MIC,Streptococcus suis 701 [3]; [11],64 µg/mL
same,MIC,Streptococcus suis 702 [4]; [12],2 µg/mL
same,% inhibition,Streptococcus suis 701 [7]; TET 16 ppm alone,11%
same,% inhibition,Streptococcus suis 701 [7]; TET 32 ppm alone,28%
same,% inhibition,Streptococcus suis 702 [8]; TET 0.5 ppm alone,20%
same,% inhibition,Streptococcus suis 702 [8]; TET 1 ppm alone,27%
"Cc1ccc(C(C)C)c(O)c1 [Thymol, 2-isopropyl-5-methylphenol]",MIC,Escherichia Coli K88 95 [1]; [9],1.87 mM
same,MIC,Escherichia coli K88 97 [2]; [10],1.87 mM
same,MIC,Streptococcus suis 701 [3]; [11],1.87 mM
same,MIC,Streptococcus suis 702 [4]; [12],1.87 mM
same,% inhibition,Escherichia Coli K88 95 [5]; THY 0.47 mM alone,7%
same,% inhibition,Escherichia Coli K88 95 [5]; THY 0.94 mM alone,18%
same,% inhibition,Escherichia coli K88 97 [6]; THY 0.47 mM alone,8%
same,% inhibition,Escherichia coli K88 97 [6]; THY 0.94 mM alone,12%
same,% inhibition,Streptococcus suis 701 [7]; THY 0.47 mM alone,0%
same,% inhibition,Streptococcus suis 701 [7]; THY 0.94 mM alone,39%
same,% inhibition,Streptococcus suis 702 [8]; THY 0.47 mM alone,10%
same,% inhibition,Streptococcus suis 702 [8]; THY 0.94 mM alone,36%
C=C[C@]1(C)C[C@@H](OC(=O)CSCCN(CC)CC)[C@]2(C)[C@H](C)CC[C@]3(CCC(=O)[C@H]32)[C@@H](C)[C@@H]1O [Tiamulin],MIC,Streptococcus suis 701 [3]; [11],4 µg/mL
same,MIC,Streptococcus suis 702 [4]; [12],1 µg/mL
COc1cc(Cc2cnc(N)nc2N)cc(OC)c1OC [Trimethoprim],MIC,Escherichia Coli K88 95 [1]; [9],> 32 µg/mL
same,MIC,Escherichia coli K88 97 [2]; [10],> 32 µg/mL
CC[C@H]1OC(=O)C[C@@H](O)[C@H](C)[C@@H](O[C@@H]2O[C@H](C)[C@@H](O[C@H]3C[C@@](C)(O)[C@@H](O)[C@H](C)O3)[C@H](N(C)C)[C@H]2O)[C@@H](CC=O)C[C@@H](C)C(=O)/C=C/C(C)=C/[C@@H]1CO[C@@H]1O[C@H](C)[C@@H](O)[C@@H](OC)[C@H]1OC [Tylosin],MIC,Streptococcus suis 701 [3]; [11],2 µg/mL
same,MIC,Streptococcus suis 702 [4]; [12],> 64 µg/mL
Penicillin,MIC values,Streptococcus suis 701 [3]; S. suis 701,0.13 ppm
same,MIC values,Streptococcus suis 702 [4]; S. suis 702,0.13 ppm
colistin [reference compound],MIC values,Escherichia Coli K88 95 [1]; E. coli 95,32 ppm
same,MIC values,Escherichia coli K88 97 [2]; E. coli 97,32 ppm
same,% inhibition,Escherichia Coli K88 95 [5]; COL 4 ppm alone,3%
same,% inhibition,Escherichia Coli K88 95 [5]; COL 8 ppm alone,8%
same,% inhibition,Escherichia Coli K88 95 [5]; COL 16 ppm alone,40%
same,% inhibition,Escherichia coli K88 97 [6]; COL 4 ppm alone,10%
same,% inhibition,Escherichia coli K88 97 [6]; COL 8 ppm alone,12%
same,% inhibition,Escherichia coli K88 97 [6]; COL 16 ppm alone,29%
neomycin [reference compound],MIC values,Escherichia Coli K88 95 [1]; E. coli 95,>64 ppm
same,MIC values,Escherichia coli K88 97 [2]; E. coli 97,>64 ppm
same,MIC values,Streptococcus suis 701 [3]; S. suis 701,8 ppm
same,MIC values,Streptococcus suis 702 [4]; S. suis 702,16 ppm
same,% inhibition,Streptococcus suis 701 [7]; NEO 2 ppm alone,6%
same,% inhibition,Streptococcus suis 701 [7]; NEO 4 ppm alone,15%
same,% inhibition,Streptococcus suis 702 [8]; NEO 4 ppm alone,10%
same,% inhibition,Streptococcus suis 702 [8]; NEO 8 ppm alone,16%
